Measurements: US20250230193A1, “CYCLIC COMPOUND HAVING SELECTIVE KRAS INHIBITORY EFFECT ON HRAS AND NRAS” (CHUGAI SEIYAKU KABUSHIKI KAISHA, priority 2022, published 2025)
Where a SMILES comes first, the peptide text is derived from it. Bridges are numbered along the chain shown (N, C = ends). [ ]: non-standard residue; d: D form. The star is where a group is joined. hPhe(3-Cl-4-CF3) = N[C@@H](CCc1ccc(C(F)(F)F)c(Cl)c1)C(=O)O; NPrPhe(4-CF3) = CCCN[C@@H](Cc1ccc(C(F)(F)F)cc1)C(=O)O; NMeGly(cPent) = CN[C@H](C(=O)O)C1CCCC1; Gly(N-propargyl) = C#CCNCC(=O)O; NMeD = CN[C@@H](CC(=O)O)C(=O)O; NMeL = CN[C@@H](CC(C)C)C(=O)O; Morpholide = C1CN(*)CCO1; Ac5c = NC1(C(=O)O)CCCC1; NEtG = CCNCC(=O)O; Sar = CNCC(=O)O

Assays:
[1] = biological target: GDP-bound NRAS wild-type protein (Homo sapiens, UniProt P01111); experiment: Binding to NRAS by surface plasmon resonance (SPR), Single Cycle Kinetics
Chain of GDP-bound NRAS wild-type protein (P01111 whole entry): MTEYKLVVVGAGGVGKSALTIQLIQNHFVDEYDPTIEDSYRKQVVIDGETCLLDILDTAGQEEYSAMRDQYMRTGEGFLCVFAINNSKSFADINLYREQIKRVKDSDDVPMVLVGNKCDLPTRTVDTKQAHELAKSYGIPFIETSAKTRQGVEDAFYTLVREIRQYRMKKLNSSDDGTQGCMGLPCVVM

[2] = biological target: GDP-bound HRAS wild-type protein (Homo sapiens, UniProt P01112); experiment: Binding to HRAS by surface plasmon resonance (SPR), Single Cycle Kinetics
Chain of GDP-bound HRAS wild-type protein (P01112 whole entry): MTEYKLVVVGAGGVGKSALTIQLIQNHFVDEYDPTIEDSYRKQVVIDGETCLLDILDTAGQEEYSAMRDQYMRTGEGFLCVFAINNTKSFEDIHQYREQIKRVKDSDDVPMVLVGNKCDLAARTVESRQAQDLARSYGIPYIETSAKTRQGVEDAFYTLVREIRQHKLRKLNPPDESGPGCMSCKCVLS

[3] = SPR, GDP-bound wild-type proteins

C#CCN1CC(=O)N(C)CC(=O)N(CCC)[C@@H](Cc2ccc(C(F)(F)F)cc2)C(=O)N(C)CC(=O)N[C@@H](CCc2ccc(C(F)(F)F)c(Cl)c2)C(=O)N2CCC[C@H]2C(=O)NC2(CCCC2)C(=O)N(C)[C@@H](C2CCCC2)C(=O)N(C)[C@H](C(=O)N2CCOCC2)CC(=O)N(C)[C@@H](CC(C)C)C(=O)N[C@@H]([C@@H](C)CC)C1=O [PP0750] ([NMeL]I[Gly(N-propargyl)][Sar][NPrPhe(4-CF3)][Sar][hPhe(3-Cl-4-CF3)]P[Ac5c][NMeGly(cPent)][NMeD]-Morpholide; lactam N-11)
NRAS/KRAS (ratio of KD value with respect to GDP-bound NRAS wild-type protein to KD value with respect to KRAS) ([1]; SPR): B (a compound having 3 or more and less than 10 is denoted as B)
HRAS/KRAS (ratio of KD value with respect to GDP-bound HRAS wild-type protein to KD value with respect to KRAS) ([2]; SPR): C (A compound having a KD ratio of 0.1 or more and less than 3 is denoted as C)

CCO[C@@H]1C[C@H]2C(=O)NC3(CCCC3)C(=O)N(C)[C@@H](C3CCCC3)C(=O)N(C)[C@H](C(=O)N(C)C)CC(=O)N(C)[C@@H](C)C(=O)N[C@@H]([C@@H](C)CC)C(=O)N(C)CC(=O)N(C)[C@H]3CCCCCN(C3=O)[C@@H](Cc3ccc(C(F)(F)F)cc3)C(=O)N(C)CC(=O)N[C@@H](CCc3cc(F)c(C(F)(F)F)c(F)c3)C(=O)N2C1 [PP0475]
NRAS/KRAS (ratio of KD value with respect to GDP-bound NRAS wild-type protein to KD value with respect to KRAS) ([1]; SPR): B (a compound having 3 or more and less than 10 is denoted as B)
HRAS/KRAS (ratio of KD value with respect to GDP-bound HRAS wild-type protein to KD value with respect to KRAS) ([2]; SPR): B (a compound having 3 or more and less than 10 is denoted as B)

CCCN1C(=O)CN(C)C(=O)CNC(=O)[C@H]([C@@H](C)CC)NC(=O)[C@H](CC(C)C)N(C)C(=O)C[C@@H](C(=O)N2CCOCC2)N(C)C(=O)[C@H](C2CCCC2)N(C)C(=O)C2(CCCC2)NC(=O)[C@@H]2CCCN2C(=O)[C@H](CCc2ccc(C(F)(F)F)c(Cl)c2)NC(=O)CN(CC)C(=O)[C@@H]1Cc1ccc(C(F)(F)F)cc1 [PP1969] ([NMeL]IG[Sar][NPrPhe(4-CF3)][NEtG][hPhe(3-Cl-4-CF3)]P[Ac5c][NMeGly(cPent)][NMeD]-Morpholide; lactam N-11)
NRAS/KRAS (ratio of KD value for NRAS to KD value for KRAS) ([1]; KD ratio, GDP-bound NRAS wild-type vs GDP-bound KRAS wild-type, SPR): B (a compound having 3 or more and less than 10 is denoted as B)
HRAS/KRAS (ratio of KD value for HRAS to KD value for KRAS) ([2]; KD ratio, GDP-bound HRAS wild-type vs GDP-bound KRAS wild-type, SPR): C (A compound having a KD ratio of 0.1 or more and less than 3 is denoted as C)

CCC[C@H]1C(=O)N[C@@H](C2CCOCC2)C(=O)N(C)CC(=O)N(C)[C@H]2C/C=C\CCN(C2=O)[C@@H](Cc2ccc(C)cc2)C(=O)N(C)CC(=O)N[C@@H](CCc2ccc(C(F)(F)F)c(Cl)c2)C(=O)N2C[C@H](OCC)C[C@H]2C(=O)NC2(CC(C)(C)C2)C(=O)N(C)[C@@H](CC(C)(C)C)C(=O)N(C)[C@H](C(=O)N(C)C)CC(=O)N1C [PP3026]
NRAS/KRAS (ratio of KD value with respect to GDP-bound NRAS wild-type protein to KD value with respect to KRAS) [1, 3]: A (a compound having 10 or more and less than 20 is denoted as A)
HRAS/KRAS (ratio of KD value with respect to GDP-bound HRAS wild-type protein to KD value with respect to KRAS) [2, 3]: A (a compound having 10 or more and less than 20 is denoted as A)

CC[C@H](C)[C@@H]1NC(=O)[C@H](CC(C)C)N(C)C(=O)C[C@@H](C(=O)N(C)C)N(C)C(=O)[C@H](C2CCCC2)N(C)C(=O)C2(CCCC2)NC(=O)[C@@H]2CCCN2C(=O)[C@H](CCc2cc(F)c(C(F)(F)F)c(F)c2)NC(=O)CN(C)C(=O)[C@H](Cc2ccc(C(F)(F)F)cc2)N2CCCCC[C@@H](C2=O)N(C)C(=O)CN(C)C1=O [PP0507]
NRAS/KRAS (ratio of KD value with respect to GDP-bound NRAS wild-type protein to KD value with respect to KRAS) ([1]; SPR): B (a compound having 3 or more and less than 10 is denoted as B)
HRAS/KRAS (ratio of KD value with respect to GDP-bound HRAS wild-type protein to KD value with respect to KRAS) ([2]; SPR): B (a compound having 3 or more and less than 10 is denoted as B)

CCO[C@@H]1C[C@H]2C(=O)NC3(CC(C)(C)C3)C(=O)N(C)[C@@H](C(CC)CC)C(=O)N(C)[C@H](C(=O)N3CCCCC3)CC(=O)N(C)[C@@H](COC)C(=O)N[C@@H]([C@@H](C)CC)C(=O)N(C)CC(=O)N(C)[C@H]3C/C=C\CCN(C3=O)[C@@H](Cc3ccc(C(F)(F)F)cc3)C(=O)N(C)CC(=O)N[C@@H](CCc3cc(F)c(C(F)(F)F)c(F)c3)C(=O)N2C1 [PP2606]
NRAS/KRAS (ratio of KD value with respect to GDP-bound NRAS wild-type protein to KD value with respect to KRAS) ([1]; class symbols): AA (a compound having 20 or more is denoted as AA)
HRAS/KRAS (ratio of KD value with respect to GDP-bound HRAS wild-type protein to KD value with respect to KRAS) ([2]; class symbols): AA (a compound having 20 or more is denoted as AA)

CCO[C@@H]1C[C@H]2C(=O)NC3(CCC3)C(=O)N(C)[C@@H](C3CCCC3)C(=O)N(C)[C@H](C(=O)N(CC)CC)CC(=O)N(C)[C@@H](C)C(=O)N[C@@H]([C@@H](C)CC)C(=O)N(C)CC(=O)N(C)[C@H]3C/C=C\CCN(C3=O)[C@@H](Cc3ccc(C(F)(F)F)cc3)C(=O)N(C)CC(=O)N[C@@H](CCc3cc(F)c(C(F)(F)F)c(F)c3)C(=O)N2C1 [PP1308]
NRAS/KRAS (ratio of KD value for GDP-bound NRAS wild-type protein to KD value for KRAS) ([1]; SPR, KD ratio class): A (a compound having 10 or more and less than 20 is denoted as A)
HRAS/KRAS (ratio of KD value for GDP-bound HRAS wild-type protein to KD value for KRAS) ([2]; SPR, KD ratio class): A (a compound having 10 or more and less than 20 is denoted as A)
